Assay results from PMC3210473 (Biotechnology and bioengineering, 2011).

How the values were obtained:
[1] = target: T1, sensor 6 (ERα 312-595) (Homo sapiens, UniProt P03372); test: split mVenus complementation, flow cytometry; assay type: cell-based
T1 sequence (P03372 312-595): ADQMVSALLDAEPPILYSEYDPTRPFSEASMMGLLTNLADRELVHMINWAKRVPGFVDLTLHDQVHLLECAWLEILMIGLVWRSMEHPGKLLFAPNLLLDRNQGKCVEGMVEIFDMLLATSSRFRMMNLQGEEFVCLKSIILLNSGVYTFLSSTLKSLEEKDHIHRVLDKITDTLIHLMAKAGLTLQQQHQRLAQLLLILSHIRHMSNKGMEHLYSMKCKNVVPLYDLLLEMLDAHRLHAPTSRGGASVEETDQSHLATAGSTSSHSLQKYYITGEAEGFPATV

[2] = target: T1, sensor 6 (ERα 312-595); test: split mVenus complementation, flow cytometry; assay type: cell-based; conditions: transfected HeLa cells, up to […] ligand, […] h

| SMILES | EC50 [1] [nM] | split mVenus complementation, flow cytometry [2] |
| --- | --- | --- |
| C[C@]12CC[C@@H]3c4cc(O)c(O)cc4CC[C@H]3[C@@H]1CC[C@@H]2O [2-Hydroxyestradiol] | 550 ± 100 | – |
| C[C@]12CC[C@@H]3c4ccc(O)c(O)c4CC[C@H]3[C@@H]1CC[C@@H]2O [4-Hydroxyestradiol] | 58 ± 4.7 | – |
| C/C=C(/C(=C/C)c1ccc(O)cc1)c1ccc(O)cc1 [Dienestrol] | 4.4 ± 0.87 | – |
| O=c1c(-c2ccc(O)cc2)coc2cc(O)ccc12 [daidzein] | – | both of which caused an increase in fluorescence at micromolar concentrations |
| Clc1ccc(C(c2ccccc2Cl)C(Cl)(Cl)Cl)cc1 (centres unmarked) [o,p’-DDT] | – | The pesticide o,p’-DDT, and a PCB compound also displayed activation beginning at micromolar levels |
